In patent publication US9163256B2, “Mutant receptors and their use in a nuclear receptor-based inducible gene expression system” (priority 2004, dated 2015):

What was measured:
Assay in all cases: cell-based
CfEcR-DEF mutant R95M = CfEcR-DEF mutant R95M (Choristoneura fumiferana, UniProt O77255, R378M); conditions: mutant R95M; for EC50: read-out: EC50
In short: (§1)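 Mutant CfEcR-DEF receptor and GAL4-driven luciferase reporter constructs transfected into mouse NIH3T3 cells with DMSO or ligand added; maintained 48 h at 37° C in 5% FBS, harvested 40 h after ligand addition. Dual-luciferase read-out; fold induction = RLU with ligand / RLU with DMSO.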

CfEcR-DEF mutant A110W = CfEcR-DEF mutant A110W (Choristoneura fumiferana, UniProt O77255, A393W); conditions: mutant A110W; for EC50: read-out: EC50
Chain of CfEcR-DEF mutant A110W (P28702 299-449, stated change not applied): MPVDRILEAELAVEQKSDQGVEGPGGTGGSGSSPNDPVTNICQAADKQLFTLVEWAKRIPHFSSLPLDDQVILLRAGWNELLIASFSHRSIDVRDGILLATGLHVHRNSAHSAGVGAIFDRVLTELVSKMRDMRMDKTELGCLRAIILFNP
Chain of CfEcR-DEF mutant A110W (O77255 entry or part of it A393W): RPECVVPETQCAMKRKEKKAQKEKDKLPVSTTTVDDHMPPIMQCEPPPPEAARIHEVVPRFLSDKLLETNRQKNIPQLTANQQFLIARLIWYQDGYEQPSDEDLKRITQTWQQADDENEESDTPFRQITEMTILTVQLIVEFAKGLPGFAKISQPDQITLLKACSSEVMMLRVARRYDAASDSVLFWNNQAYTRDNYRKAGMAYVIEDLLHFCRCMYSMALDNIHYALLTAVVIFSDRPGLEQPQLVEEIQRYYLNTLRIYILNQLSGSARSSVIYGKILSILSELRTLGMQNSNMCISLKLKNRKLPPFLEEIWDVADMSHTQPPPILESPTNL
In short: as §1

CfEcR-DEF mutant A110E = CfEcR-DEF mutant A110E (Choristoneura fumiferana, UniProt O77255, A393E); conditions: mutant A110E; for EC50: read-out: EC50; for Rel Max FI: relative to max fold induction of GS-E ligand
Chain of CfEcR-DEF mutant A110E (P28702 299-449, stated change not applied): as the sequence (P28702 299-449, stated change not applied) above
Chain of CfEcR-DEF mutant A110E (O77255 entry or part of it A393E): as the sequence (O77255 entry or part of it A393W) above, with W187E counted along it
In short: as §1

CfEcR-DEF mutant M125P = CfEcR-DEF mutant M125P (Choristoneura fumiferana, UniProt O77255, M408P); conditions: mutant M125P; for EC50: read-out: EC50
In short: as §1

CfEcR-DEF mutant W238P = CfEcR-DEF mutant W238P (Choristoneura fumiferana, UniProt O77255, W521P); conditions: mutant W238P; for EC50: read-out: EC50; for Rel Max FI: relative to max fold induction of GS-E ligand
Chain of CfEcR-DEF mutant W238P (P28702 299-449): as the sequence (P28702 299-449, stated change not applied) above
Chain of CfEcR-DEF mutant W238P (O77255 entry or part of it W521P): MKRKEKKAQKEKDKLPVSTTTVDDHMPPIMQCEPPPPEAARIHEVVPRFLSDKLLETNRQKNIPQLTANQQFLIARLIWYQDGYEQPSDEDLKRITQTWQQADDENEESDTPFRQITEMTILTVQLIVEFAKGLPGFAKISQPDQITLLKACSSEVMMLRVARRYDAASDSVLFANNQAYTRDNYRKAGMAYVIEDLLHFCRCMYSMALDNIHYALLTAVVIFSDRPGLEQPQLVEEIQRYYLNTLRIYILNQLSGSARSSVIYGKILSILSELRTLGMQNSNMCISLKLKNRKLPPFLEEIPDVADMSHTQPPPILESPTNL
In short: as §1

CfEcR-DEF mutant M92E = CfEcR-DEF mutant M92E (Choristoneura fumiferana, UniProt O77255, M375E); conditions: mutant M92E; for EC50: read-out: EC50
Chain of CfEcR-DEF mutant M92E (P28702 299-449): as the sequence (P28702 299-449, stated change not applied) above
Chain of CfEcR-DEF mutant M92E (O77255 entry or part of it M375E): as the sequence (O77255 entry or part of it A393W) above, with M169E, W187A counted along it
In short: as §1

CfEcR-DEF mutant M54T = CfEcR-DEF mutant M54T (Choristoneura fumiferana, UniProt O77255, M337T); conditions: mutant M54T; for EC50: read-out: EC50; for Rel Max FI: relative to max fold induction of GS-E ligand
In short: as §1

CfEcR-DEF mutant R95H = CfEcR-DEF mutant R95H (Choristoneura fumiferana, UniProt O77255, R378H); conditions: mutant R95H; for EC50: read-out: EC50
In short: as §1

CfEcR-DEF mutant M125E = CfEcR-DEF mutant M125E (Choristoneura fumiferana, UniProt O77255, M408E); conditions: mutant M125E; for EC50: read-out: EC50
In short: as §1

[1] = target: CfEcR-DEF mutant N119F/V96T (Choristoneura fumiferana, UniProt O77255, N402F/V379T); conditions: mutant N119F/V96T; for EC50: read-out: EC50; for Rel Max FI: relative to max fold induction of GS-E ligand
Chain of CfEcR-DEF mutant N119F/V96T (O77255 entry or part of it V379T/N402F): as the sequence (O77255 entry or part of it W521P) above, with V161T, N184F, P303W counted along it
Chain of CfEcR-DEF mutant N119F/V96T (P28702 299-449, further chain): as the sequence (P28702 299-449, stated change not applied) above
In short: as §1

CfEcR-DEF mutant R95W = CfEcR-DEF mutant R95W (Choristoneura fumiferana, UniProt O77255, R378W); conditions: mutant R95W; for EC50: read-out: EC50
In short: as §1

CfEcR-DEF mutant L132V = CfEcR-DEF mutant L132V (Choristoneura fumiferana, UniProt O77255, L415V); conditions: mutant L132V; for EC50: read-out: EC50; for Rel Max FI: relative to max fold induction of GS-E ligand
In short: as §1

CfEcR-DEF mutant M125C = CfEcR-DEF mutant M125C (Choristoneura fumiferana, UniProt O77255, M408C); conditions: mutant M125C
In short: as §1

CfEcR-DEF mutant V96W = CfEcR-DEF mutant V96W (Choristoneura fumiferana, UniProt O77255, V379W); conditions: mutant V96W; for EC50: read-out: EC50
In short: as §1

CfEcR-DEF mutant W238Y = CfEcR-DEF mutant W238Y (Choristoneura fumiferana, UniProt O77255, W521Y); conditions: mutant W238Y; for EC50: read-out: EC50
In short: as §1

CfEcR-DEF mutant M125L = CfEcR-DEF mutant M125L (Choristoneura fumiferana, UniProt O77255, M408L); conditions: mutant M125L; for EC50: read-out: EC50
Chain of CfEcR-DEF mutant M125L (P28702 299-449): as the sequence (P28702 299-449, stated change not applied) above
Chain of CfEcR-DEF mutant M125L (O77255 entry or part of it M408L): as the sequence (O77255 entry or part of it W521P) above, with M190L, P303W counted along it
In short: as §1

[2] = target: CfEcR-DEF mutant V128F/A110P (Choristoneura fumiferana, UniProt O77255, A393P/V411F); conditions: mutant V128F/A110P; for EC50: read-out: EC50
Chain of CfEcR-DEF mutant V128F/A110P (P28702 299-449, stated change not applied): as the sequence (P28702 299-449, stated change not applied) above
Chain of CfEcR-DEF mutant V128F/A110P (O77255 entry or part of it A393P/V411F): as the sequence (O77255 entry or part of it W521P) above, with A175P, V193F, P303W counted along it
In short: as §1

CfEcR-DEF mutant F109W = CfEcR-DEF mutant F109W (Choristoneura fumiferana, UniProt O77255, F392W); conditions: mutant F109W; for EC50: read-out: EC50; for Rel Max FI: relative to max fold induction of GS-E ligand
In short: as §1

CfEcR-DEF mutant I51L = CfEcR-DEF mutant I51L (Choristoneura fumiferana, UniProt O77255, I334L); conditions: mutant I51L; for EC50: read-out: EC50
In short: as §1

CfEcR-DEF mutant F109L = CfEcR-DEF mutant F109L (Choristoneura fumiferana, UniProt O77255, F392L); conditions: mutant F109L; for EC50: read-out: EC50
Chain of CfEcR-DEF mutant F109L (P28702 299-449): as the sequence (P28702 299-449, stated change not applied) above
Chain of CfEcR-DEF mutant F109L (O77255 entry or part of it F392L): as the sequence (O77255 entry or part of it A393W) above, with F186L, W187A counted along it
In short: as §1

CfEcR-DEF mutant Y120W = CfEcR-DEF mutant Y120W (Choristoneura fumiferana, UniProt O77255, Y403W); conditions: mutant Y120W; for EC50: read-out: EC50
In short: as §1

[3] = relative to max fold induction of GS-E ligand

Chain of CfEcR-DEF mutant R95M (P28702 299-449): as the sequence (P28702 299-449, stated change not applied) above
Chain of CfEcR-DEF mutant R95M (O77255 entry or part of it R378M): as the sequence (O77255 entry or part of it W521P) above, with R160M, P303W counted along it

For `CC(C)(O)CC[C@@H](O)[C@](C)(O)[C@H]1CC[C@@]2(O)C3=CC(=O)[C@@H]4C[C@@H](O)[C@@H](O)C[C@]4(C)[C@H]3CC[C@]12C` [20E, 20-hydroxyecdysone], the “Rel Max FI” value (CfEcR-DEF mutant R95M) was 0, the EC50 (CfEcR-DEF mutant R95M) was > 33 µM and the “Rel Max FI” value (CfEcR-DEF mutant A110W) was 0. For the same molecule, the EC50 (CfEcR-DEF mutant A110W) was > 33 µM, the EC50 (CfEcR-DEF mutant A110E) was > 33 µM and the “Rel Max FI” value (CfEcR-DEF mutant A110E) was 0. For the same molecule, the “Rel Max FI” value (CfEcR-DEF mutant M125P) was 1.29, the EC50 (CfEcR-DEF mutant M125P) was > 33 µM and the EC50 (CfEcR-DEF mutant W238P) was > 33 µM. For the same molecule, the “Rel Max FI” value (CfEcR-DEF mutant W238P) was 0, the “Rel Max FI” value (CfEcR-DEF mutant M92E) was 0 and the EC50 (CfEcR-DEF mutant M92E) was > 33 µM. The EC50 (CfEcR-DEF mutant M54T) was > 33 µM, the “Rel Max FI” value (CfEcR-DEF mutant M54T) was 0 and the “Rel Max FI” value (CfEcR-DEF mutant R95H) was 0. For the same molecule, the EC50 (CfEcR-DEF mutant R95H) was > 33 µM, the “Rel Max FI” value (CfEcR-DEF mutant M125E) was 0 and the EC50 (CfEcR-DEF mutant M125E) was > 33 µM. For the same molecule, the EC50 [1] was ~8 µM, the “Rel Max FI” value [1] was 0.46 and the “Rel Max FI” value (CfEcR-DEF mutant R95W) was 0. The EC50 (CfEcR-DEF mutant R95W) was > 33 µM, the EC50 (CfEcR-DEF mutant L132V) was > 33 µM and the “Rel Max FI” value (CfEcR-DEF mutant L132V) was 0. For the same molecule, the “Rel Max FI” value (CfEcR-DEF mutant M125C) was 0.22, the “Rel Max FI” value (CfEcR-DEF mutant V96W) was 0 and the EC50 (CfEcR-DEF mutant V96W) was > 33 µM. For the same molecule, the “Rel Max FI” value (CfEcR-DEF mutant W238Y) was 0.18, the EC50 (CfEcR-DEF mutant W238Y) was > 33 µM and the “Rel Max FI” value (CfEcR-DEF mutant M125L) was 0. For the same molecule, the EC50 (CfEcR-DEF mutant M125L) was > 33 µM, the “Rel Max FI” value [2] was 0 and the EC50 [2] was > 33 µM. The “Rel Max FI” value [2, 3] was 0.00, the EC50 (CfEcR-DEF mutant F109W) was > 33 µM and the “Rel Max FI” value (CfEcR-DEF mutant F109W) was 0. For the same molecule, the “Rel Max FI” value (CfEcR-DEF mutant I51L) was 0, the EC50 (CfEcR-DEF mutant I51L) was > 33 µM and the “Rel Max FI” value (CfEcR-DEF mutant F109L) was 0.09. The EC50 (CfEcR-DEF mutant F109L) was > 33 µM, the “Rel Max FI” value (CfEcR-DEF mutant Y120W) was 0 and the EC50 (CfEcR-DEF mutant Y120W) was > 33 µM.

`CC(C)CC[C@@H](O)[C@](C)(O)[C@H]1CC[C@@]2(O)C3=CC(=O)[C@@H]4C[C@@H](O)[C@@H](O)C[C@]4(C)[C@H]3CC[C@]12C` [PonA, ponasterone A] was tested, and the “Rel Max FI” value (CfEcR-DEF mutant R95M) was 0, the EC50 (CfEcR-DEF mutant R95M) was > 33 µM and the “Rel Max FI” value (CfEcR-DEF mutant A110W) was 0.01. For the same molecule, the EC50 (CfEcR-DEF mutant A110W) was > 33 µM, the EC50 (CfEcR-DEF mutant A110E) was ~10 µM and the “Rel Max FI” value (CfEcR-DEF mutant A110E) was 1.09. For the same molecule, the “Rel Max FI” value (CfEcR-DEF mutant M125P) was 0.7, the EC50 (CfEcR-DEF mutant M125P) was > 33 µM and the EC50 (CfEcR-DEF mutant W238P) was ~3.3 µM. The “Rel Max FI” value (CfEcR-DEF mutant W238P) was 0.73, the “Rel Max FI” value (CfEcR-DEF mutant M92E) was 0.01 and the EC50 (CfEcR-DEF mutant M92E) was > 33 µM. The EC50 (CfEcR-DEF mutant M54T) was 9.46 µM, the “Rel Max FI” value (CfEcR-DEF mutant M54T) was 0.5 and the “Rel Max FI” value (CfEcR-DEF mutant R95H) was 0.03. The EC50 (CfEcR-DEF mutant R95H) was > 33 µM, the “Rel Max FI” value (CfEcR-DEF mutant M125E) was 0 and the EC50 (CfEcR-DEF mutant M125E) was > 33 µM. The EC50 [1] was ~0.3 µM, the “Rel Max FI” value [1] was 2.02 and the “Rel Max FI” value (CfEcR-DEF mutant R95W) was 0. The EC50 (CfEcR-DEF mutant R95W) was > 33 µM, the EC50 (CfEcR-DEF mutant L132V) was 6.56 µM and the “Rel Max FI” value (CfEcR-DEF mutant L132V) was 0.57. The “Rel Max FI” value (CfEcR-DEF mutant M125C) was 0.28, the “Rel Max FI” value (CfEcR-DEF mutant V96W) was 0.83 and the EC50 (CfEcR-DEF mutant V96W) was ~3.3 µM. The “Rel Max FI” value (CfEcR-DEF mutant W238Y) was 0.07, the EC50 (CfEcR-DEF mutant W238Y) was > 33 µM and the “Rel Max FI” value (CfEcR-DEF mutant M125L) was 0. The EC50 (CfEcR-DEF mutant M125L) was > 33 µM, the “Rel Max FI” value [2] was 0 and the EC50 [2] was > 33 µM. The “Rel Max FI” value [2, 3] was 0.00, the EC50 (CfEcR-DEF mutant F109W) was 4.06 µM and the “Rel Max FI” value (CfEcR-DEF mutant F109W) was 0.08. For the same molecule, the “Rel Max FI” value (CfEcR-DEF mutant I51L) was 0.66, the EC50 (CfEcR-DEF mutant I51L) was ~8 µM and the “Rel Max FI” value (CfEcR-DEF mutant F109L) was 0.03. The EC50 (CfEcR-DEF mutant F109L) was > 33 µM, the “Rel Max FI” value (CfEcR-DEF mutant Y120W) was 0.69 and the EC50 (CfEcR-DEF mutant Y120W) was ~10 µM.
